According to PMC5861052, “Uptake and accumulation of Microcystin-LR based on exposure through drinking water: An animal model assessing the human health risk” (Scientific Reports, 2018):
“And” between values parts separate entries of the source, which are not always exact repeats. Equal entries are not always repeated.

Assays:
[1] = Free MC-LR in porcine serum, experiment 1 (low dose), UPLC-MS/MS; conditions: pig, in vivo, po
Method: The animal studies were performed under licence (PPL 2755 - Chemical contaminants in food producing animals) issued by the Department of Health, Social Services and Public Safety in Northern Ireland (NI) in accordance with the Animal (Scientific Procedures) Act (1986), and under the approval of the Agri-Food and Biosciences Institute (AFBI) Animal Welfare and Ethical Review Body (AWERB) and associated EU Directive 2010/63/EU for animal experiments. The study was performed on behalf of Queen’s University Belfast (QUB) by the Veterinary Sciences Division, Agri-Food and Biosciences Institute, Belfast, Northern Ireland. […]
Following the acclimatization period of seven days, eight healthy pigs were selected randomly for the control group and the remaining eight healthy pigs assigned to the treatment group. Before treatment, animals were examined by a veterinarian to confirm clinical health and then weighed, with the weight and identification of animals in each group recorded. […]
Analysis was performed using an ACQUITY UPLC i-Class system coupled to a Xevo TQ-S (triple quadrupole MS/MS) Mass Spectrometer (Waters, Manchester, UK). Detection and quantification was achieved using targeted analysis using Multiple Reaction Monitoring (MRM) and operated in ESI^+ mode. […]

[2] = Free MC-LR in porcine tissues, experiment 1 (low dose), UPLC-MS/MS; conditions: pig, in vivo, po
Source text: (§1) Following the acclimatization period of seven days, eight healthy pigs were selected randomly for the control group and the remaining eight healthy pigs assigned to the treatment group. Before treatment, animals were examined by a veterinarian to confirm clinical health and then weighed, with the weight and identification of animals in each group recorded. Over the study period (13 weeks), each animal from the treatment group received a low dose of MC-LR daily by oral gavage. The dose administered was 0.04 µg toxin/kg body weight, the provisional World Health Organization Tolerable Daily Intake (WHO TDI), based on the NOAEL derived from the animal experiment conducted by Fawell et al. (1999), with the average dose for the eight treated animals outlined in Table 3. Briefly, a 1 mg/mL solution of MC-LR was prepared by the addition of 250 µL of ethanol followed by 750 µL water. The appropriate dilutions were then performed depending on the weight of the animal to ensure the correct dose was administered in 5 mL of water.
Serum was collected weekly, starting at day -7 from treated and control animals as the pre-bleeds. […]
(§2) In order to quantify any toxins identified, a six-point extracted matrix-matched calibration curve in the range 0.001–0.1 μg/g dw was prepared using pooled control samples of the relevant tissue. […]

[3] = Bound MC-LR (MMPB) in porcine liver by Lemieux oxidation, experiment 1; conditions: pig, in vivo, po
Source text: as §1, with “Briefly, a 1 mg/mL solution of MC-LR was prepared by the addition of 250 µL of ethanol followed by 750 µL water. The appropriate dilutions were then performed depending on the weight of the animal to ensure the correct dose was administered in 5 mL of water.” left out
Porcine tissue samples (50 mg) were weighed into 50 mL round bottomed flasks with the conversion and subsequent enrichment of MMPB carried out as outlined in ‘Analysis of conjugated MC-LR in porcine tissue’ (see Supplementary Information online). Samples were initially screened for MMPB, with any samples found to contain toxin quantified by use of a six point extracted matrix matched calibration curve in the range 0.010–0.25 µg/g dw using pooled control tissue of the relevant tissue, with calibrant levels achieved by spiking with the MMPB standard at a concentration of either 0.5 or 0.05 µg/mL after pH adjustment. […]

[4] = Free MC-LR in porcine serum, experiment 2 (high dose), UPLC-MS/MS; conditions: pig, in vivo, po
Method: (§3) This study was performed as described previously using twelve male Duroc pigs, six control and six treated pigs. Housing, diet and treatment were as described previously with the following modifications:
(§4) Animals were subjected to a fourteen-day acclimatization period prior to assignment to control or treated groups. Over the study period, each animal from the treatment group received a daily dose of 2 µg toxin/kg body weight MC-LR by oral gavage, 50 times the provisional WHO TDI, with the average dose for the six treated animals outlined in Table 4
, with the MC-LR for dosing prepared as described above. At day 40 (approximately 5 weeks) treated and control animals were euthanized. Sample collection and storage was as outlined for experiment 1. […]
Analysis was performed using an ACQUITY UPLC i-Class system coupled to a Xevo TQ-S (triple quadrupole MS/MS) Mass Spectrometer (Waters, Manchester, UK). Detection and quantification was achieved using targeted analysis using Multiple Reaction Monitoring (MRM) and operated in ESI^+ mode. Analyte precursor ions were identified as [M + H]^+ for both MC-LR and NOD (IS) with the quantifying (Q) and qualifying (q) ions used as follows:
To quantify any MC-LR detected, a seven point extracted matrix matched calibration curve in the range 0.2-100 ng/mL serum was prepared using the ‘negative’ porcine serum. […]

[5] = Free MC-LR in porcine tissues, experiment 2 (high dose), UPLC-MS/MS; conditions: pig, in vivo, po
Method: as §3, §4
(§5) , with the MC-LR for dosing prepared as described above. At day 40 (approximately 5 weeks) treated and control animals were euthanized. Sample collection and storage was as outlined for experiment 1.
Tissue samples (see Supplementary Information online) (100 mg) were spiked with 10 μL of the NOD (IS) at 0.5 μg/mL and extracted by addition of 1.5 mL of 80% aqueous MeOH (v/v) (0.5% acetic acid v/v), vortex mixed briefly and sonicated at 35–40 °C for 45 min before centrifugation at 16 000 g for 15 min. […]
as §2

[6] = assay type: in vivo; conditions: pig
Method: as §3, §4, §5
Porcine tissue samples (50 mg) were weighed into 50 mL round bottomed flasks with the conversion and subsequent enrichment of MMPB carried out as outlined in ‘Analysis of conjugated MC-LR in porcine tissue’ (see Supplementary Information online). Samples were initially screened for MMPB, with any samples found to contain toxin quantified by use of a six point extracted matrix matched calibration curve in the range 0.010–0.25 µg/g dw using pooled control tissue of the relevant tissue, with calibrant levels achieved by spiking with the MMPB standard at a concentration of either 0.5 or 0.05 µg/mL after pH adjustment.
Conversion of any bound MC-LR and subsequent extraction was performed according to a modified method derived from Neffling et al. (2010) and developed using 50 mg aliquots of lyophilised homogenised, pooled porcine tissue from the control animals. 50 mg of tissue was weighed into a 50 mL round bottomed flask and 5 mL of oxidation solution at a concentration of 0.1 M was added, comprising both potassium permanganate (KMnO4) and sodium (meta) periodate (NaIO4) at 0.2 M mixed 1:1 v/v. The mixture was stirred at room temperature for 2 h whereby the colour of the solution turned from purple (colour of KMnO4) to red/brown (colour of the reduced product MnO2). A further 4 mL oxidation solution at 0.1 M was added turning the solution back to purple. The reaction was immediately quenched by addition of 1 mL sodium bisulphite solution (40% v/v). Following this, samples were transferred to 15 mL tubes and 10% sulphuric acid was added drop wise until the pH was acidic (~ 2). Samples were then centrifuged at 4 500 rpm for 15 min and the supernatant removed and loaded directly onto SPE cartridges.
Sample enrichment and clean-up was carried out using OASIS PRiME HLB cartridges, with samples loaded onto the cartridges, allowed to drip through under gravity then washed with water and 20% aqueous methanol (v/v). Bound MMPB was eluted into clean glass tubes using 2 x 1.5 mL 80% aqueous methanol (v/v) and the eluents evaporated to dryness under a gentle stream of nitrogen using a turbovap set at 45 °C. Samples were reconstituted in 100 µL 80% aqueous MeOH (v/v) and transferred to a micro vial for analysis.
Analysis of MMPB was performed as described above in ‘Analysis of free MC-LR and MC-LR-GSH in porcine tissues’. Detection and quantification was achieved using MRM, with MMPB seen as the [M + H]^+ ion and the transitions optimised manually as follows:
Separation was achieved using the same column and mobile phases as detailed above in ‘Analysis of free MC-LR in porcine serum’ with the flow rate set at 0.4 ml/min. The gradient used to achieve separation was as described above with the ACN initially held at 10%, then returned to 10% prior to the next injection.

[7] = Parent ion scan of Adda fragment (m/z 135) in porcine serum; conditions: pig, in vivo
Method: With MC-LR and its congeners, as well as any potential metabolites of MC-LR having in common the shared Adda group ((2S, 3S, 8S, 9S)-3-amino-9-methoxy-2, 6, 8-trimethyl-10-phenyldeca-4(E), 6(E)-dienoic acid) (Fig. 1)[8], serum samples were analysed for parent ions of Adda, with this fragment having an m/z of 135. This was optimised using the MC-LR standard and indicated a peak at the same retention time as when analysed in MRM mode, with the retention window extended to allow identification of any potential MC-LR metabolites.
A selection of serum sample time points from experiment (1) were chosen (n = 32), with; t = 14, t = 42, t = 70 and t = 98 correlating to the start, one, two and three months of treatment for each animal, as well as serum from all time points (n = 36) for each animal from experiment (2).

[8] = in vivo, cited from earlier work
Method: Looking at the study by Tencalla et al. (1997) in which rainbow trout were dosed with MC-LR also via oral gavage, they estimated the uptake of MC-LR into blood to be approximately 4.4% of the dose administered of 5700 µg MC-LR/kg bw[51]. Based on the findings reported by Tencalla et al. and taking the average bodyweight of the six animals in the final week of dosing in experiment (2) of our study, the average dose administered to the six animals equates to 96 µg of MC-LR per day for the last week. […].

[9] = mouse, in vivo, iv; cited from earlier work
Method: […]. In another experiment conducted by Robinson et al. (1991) using radiolabelled MC-LR to track its distribution in mice, levels of radiolabelled MC-LR peaked in the liver after only 30 min[52], although in this case the mice were injected intravenously via the tail vein rather than by oral g ...

Compound | free MC-LR in serum [1] [ng/mL] | free MC-LR in liver, kidney, large and small intestine tissues [2] | bound MC-LR (MMPB) in liver tissue [3] | free MC-LR in serum [4] | free MC-LR in all other tissue samples (liver, kidney, small and large intestine, spleen, brain) [5] | MC-LR present in liver ([6]; in vivo) | Uptake of MC-LR by liver as percentage of the dose administered ([6]; in vivo) | average amount of bound MC-LR accumulated in liver ([6]; in vivo) [µg] | average uptake of MC-LR by liver as percentage of total dose administered ([6]; in vivo) [%] | estimated bound MC-LR in liver (average) ([6]; in vivo) [ng/g ww] | peaks in parent ion scan of Adda fragment m/z 135 in serum (free MC-LR or MC-LR metabolites) [7] | uptake of MC-LR into blood as percentage of dose administered ([8]; po) | uptake of MC-LR into the liver ([8]; po) [%] | half-life in the blood [8] [h] | time after which the liver indicated the presence of MC-LR [8] [h] | time of maximum levels in the liver after exposure [8] [h] | time at which levels of radiolabelled MC-LR peaked in the liver [9] [min] | concentration of MMPB detected in liver (average estimated value) ([6]; livers of T2, T4 and T5, MC-LR oral gavage 2 µg/kg bw daily, Lemieux oxidation, dry weight) [ng/g dw]
Microcystin-LR [MC-LR] | < 0.03 | none of the tissues contained any trace | negative | negative | free of MC-LR residues | 23.1 µg and 21.9 µg and 34.1 µg | 1.1% and 0.8% and 1.5% | 26.4 ± 5.5 | 1.1 | 23.2 | negative | approximately 4.4% | 1.7 | 3.3 | 1 | 3 | 30 | –
COC(Cc1ccccc1)C(C)C(=O)O (stereo not drawn) [MMPB, 2-methyl-3-methoxy-4-phenylbutyric acid] | – | – | – | – | – | – | – | – | – | – | – | – | – | – | – | – | – | 14.4
